Source: paper PMC11074101 (Cell Discovery, 2024)

Columns and labels:
Format in all cases: cell-based
[1] = target: T1, MCHR1 L172(2.64)A (Homo sapiens, UniProt Q99705, L103A); experiment: GloSensor cAMP assay, MCHR1 L172A; settings: HEK293, mean ± S.E.M., n = 3 in triplicate
T1 construct: expressed in transfected cells; host or cells: HEK293
Excerpt: (§1) The gene sequences encoding human MCHR1 (residues 70‒405) and MCHR2 (residues 1‒331, with L256^6.40Y mutation) were subcloned into pFastBac vector (Invitrogen) with an N-terminal haemagglutinin signal peptide (HA) and a thermostabilized BRIL fusion, followed by a C-terminal 15-amino acid linker, a LgBiT subunit and two MBPs to facilitate receptor expression and stability. The Gαi construct was designed with dominant-negative mutations S47N, G203A, A326S, and E245A to decrease the affinity of nucleotide-binding and stable Gαβγ complex. The mini-Gαq construct was designed with the C-terminal α-helix (αH5) of Gαq, which is critical for G protein coupling selectivity. The core of the construct, known as the Ras domain, is derived from Gαs. This design choice was made to enable the binding of the nanobody Nb35, which stabilizes the complex for cryo-EM analysis. […] Rat Gβ1 was constructed with a N-terminal 16× His-tag for purification and a C-terminal HiBiT to form a NanoBiT with LgBiT. […] The wild-type and mutants of MCHR1 and MCHR2 were constructed into the pcDNA6.0 vector […] for functional assays.
(§2) GloSensor cAMP assay was used to detect the downstream Gαi signal of MCHR1 using GloSensor cAMP Reagent (Promega).

[2] = target: T2, MCHR2 T198(5.39)A (Homo sapiens, UniProt Q969V1, T198A); experiment: IP-One IP1 accumulation assay, MCHR2 T198A; settings: n = 3 in triplicate
T2 construct: expressed in transfected cells; host or cells: AD293
Excerpt: (§3) The gene sequences encoding human MCHR1 (residues 70‒405) and MCHR2 (residues 1‒331, with L256^6.40Y mutation) were subcloned into pFastBac vector (Invitrogen) with an N-terminal haemagglutinin signal peptide (HA) and a thermostabilized BRIL fusion, followed by a C-terminal 15-amino acid linker, a LgBiT subunit and two MBPs to facilitate receptor expression and stability. The Gαi construct was designed with dominant-negative mutations S47N, G203A, A326S, and E245A to decrease the affinity of nucleotide-binding and stable Gαβγ complex. The mini-Gαq construct was designed with the C-terminal α-helix (αH5) of Gαq, which is critical for G protein coupling selectivity. The core of the construct, known as the Ras domain, is derived from Gαs. This design choice was made to enable the binding of the nanobody Nb35, which stabilizes the complex for cryo-EM analysis. […]
(§4) IP1 accumulation assay was applied for the detection of the downstream Gαq signal of MCHR2 using the IP-One HTRF kit (Cisbio). […] Before measurement, the samples were incubated at RT for 30 min and measured with EnVision multi-plate reader (PerkinElmer).
(§5) Concentration–response curves were evaluated with a three-parameter logistic equation. The significance was determined with one-way ANOVA with Tukey’s test, and P < 0.05 vs wild type was considered statistically significant.

[3] = target: T3, MCHR2 Q271(6.55)A (Homo sapiens, UniProt Q969V1, Q271A); experiment: IP-One IP1 accumulation assay, MCHR2 Q271A; settings: n = 3 in triplicate
T3 construct: expressed in transfected cells; host or cells: AD293
Excerpt: as §3, §4, §5

[4] = target: T4, MCHR2 Y285(7.32)A (Homo sapiens, UniProt Q969V1, Y285A); experiment: IP-One IP1 accumulation assay, MCHR2 Y285A; settings: AD293, mean ± S.E.M., n = 3 in triplicate
T4 construct: expressed in transfected cells; host or cells: AD293
Excerpt: as §3, §4, §5

[5] = target: T5, MCHR1 Y362(7.35)A (Homo sapiens, UniProt Q99705, Y293A); experiment: GloSensor cAMP assay, MCHR1 Y362A; settings: HEK293, mean ± S.E.M., n = 3 in triplicate
T5 construct: expressed in transfected cells; host or cells: HEK293
Excerpt: as §1, §2

[6] = target: T6, MCHR2 V181(ECL2)A (Homo sapiens, UniProt Q969V1, V181A); experiment: IP-One IP1 accumulation assay, MCHR2 V181A; settings: n = 3 in triplicate
T6 construct: expressed in transfected cells; host or cells: AD293
Excerpt: as §3, §4, §5

[7] = target: T7, MCHR2 Y267(6.51)A (Homo sapiens, UniProt Q969V1, Y267A); experiment: IP-One IP1 accumulation assay, MCHR2 Y267A; settings: n = 3 in triplicate
T7 construct: expressed in transfected cells; host or cells: AD293
Excerpt: as §3, §4, §5

[8] = target: T8, MCHR2 L188(ECL2)A (Homo sapiens, UniProt Q969V1, L188A); experiment: IP-One IP1 accumulation assay, MCHR2 L188A; settings: AD293, mean ± S.E.M., n = 3 in triplicate
T8 construct: expressed in transfected cells; host or cells: AD293
Excerpt: as §3, §4, §5

[9] = target: T9, MCHR2 D113(3.32)A (Homo sapiens, UniProt Q969V1, D113A); experiment: IP-One IP1 accumulation assay, MCHR2 D113A; settings: n = 3 in triplicate
T9 construct: expressed in transfected cells; host or cells: AD293
Excerpt: as §3, §4, §5

[10] = target: T10, MCHR1 WT (Homo sapiens, UniProt Q99705); experiment: GloSensor cAMP assay, MCHR1 WT (Gαi); settings: HEK293, GloSensor cAMP, normalized by WT receptor, mean ± S.E.M., n = 3 in triplicate
T10 construct: expressed in transfected cells; host or cells: HEK293
Excerpt: as §1, §2

[11] = target: T11, MCHR2 L89(2.60)A (Homo sapiens, UniProt Q969V1, L89A); experiment: IP-One IP1 accumulation assay, MCHR2 L89A; settings: n = 3 in triplicate
T11 construct: expressed in transfected cells; host or cells: AD293
Excerpt: as §3, §4, §5

[12] = target: T12, MCHR1 I366(7.39)A (Homo sapiens, UniProt Q99705, I297A); experiment: GloSensor cAMP assay, MCHR1 I366A; settings: HEK293, mean ± S.E.M., n = 3 in triplicate
T12 construct: expressed in transfected cells; host or cells: HEK293
Excerpt: as §1, §2

[13] = target: T13, MCHR2 W93(2.64)A (Homo sapiens, UniProt Q969V1, W93A); experiment: IP-One IP1 accumulation assay, MCHR2 W93A; settings: n = 3 in triplicate
T13 construct: expressed in transfected cells; host or cells: AD293
Excerpt: as §3, §4, §5

[14] = target: T14, MCHR2 I292(7.39)A (Homo sapiens, UniProt Q969V1, I292A); experiment: IP-One IP1 accumulation assay, MCHR2 I292A; settings: n = 3 in triplicate
T14 construct: expressed in transfected cells; host or cells: AD293
Excerpt: as §3, §4, §5

[15] = target: T15, MCHR2 S183(ECL2)A (Homo sapiens, UniProt Q969V1, S183A); experiment: IP-One IP1 accumulation assay, MCHR2 S183A; settings: AD293, mean ± S.E.M., n = 3 in triplicate
T15 construct: expressed in transfected cells; host or cells: AD293
Excerpt: as §3, §4, §5

[16] = target: T16, MCHR1 Y341(6.51)A (Homo sapiens, UniProt Q99705, Y272A); experiment: GloSensor cAMP assay, MCHR1 Y341A; settings: HEK293, mean ± S.E.M., n = 3 in triplicate
T16 construct: expressed in transfected cells; host or cells: HEK293
Excerpt: as §1, §2

[17] = target: T17, MCHR1 F256(ECL2)A (Homo sapiens, UniProt Q99705, F187A); experiment: GloSensor cAMP assay, MCHR1 F256A; settings: HEK293, mean ± S.E.M., n = 3 in triplicate
T17 construct: expressed in transfected cells; host or cells: HEK293
Excerpt: as §1, §2

[18] = target: T18, MCHR1 Y370(7.42)A (Homo sapiens, UniProt Q99705, Y301A); experiment: GloSensor cAMP assay, MCHR1 Y370A; settings: HEK293, mean ± S.E.M., n = 3 in triplicate
T18 construct: expressed in transfected cells; host or cells: HEK293
Excerpt: as §3
GloSensor cAMP assay was used to detect the downstream Gαi signal of MCHR1 using GloSensor cAMP Reagent (Promega). […] The sample mixtures were immediately measured with an EnVision multi-plate reader (PerkinElmer).
as §5

[19] = target: T19, MCHR1 I254(ECL2)A (Homo sapiens, UniProt Q99705, I185A); experiment: GloSensor cAMP assay, MCHR1 I254A; settings: HEK293, mean ± S.E.M., n = 3 in triplicate
T19 construct: expressed in transfected cells; host or cells: HEK293
Excerpt: as §1, §2

[20] = target: T20, MCHR1 P354(ECL3)A (Homo sapiens, UniProt Q99705, P285A); experiment: GloSensor cAMP assay, MCHR1 P354A; settings: HEK293, mean ± S.E.M., n = 3 in triplicate
T20 construct: expressed in transfected cells; host or cells: HEK293
Excerpt: as §1, §2

[21] = AD293, IP-One HTRF, 37 °C 1 h, mean ± S.E.M., P < 0.0001 vs WT

T6 sequence (Q969V1 whole entry V181A): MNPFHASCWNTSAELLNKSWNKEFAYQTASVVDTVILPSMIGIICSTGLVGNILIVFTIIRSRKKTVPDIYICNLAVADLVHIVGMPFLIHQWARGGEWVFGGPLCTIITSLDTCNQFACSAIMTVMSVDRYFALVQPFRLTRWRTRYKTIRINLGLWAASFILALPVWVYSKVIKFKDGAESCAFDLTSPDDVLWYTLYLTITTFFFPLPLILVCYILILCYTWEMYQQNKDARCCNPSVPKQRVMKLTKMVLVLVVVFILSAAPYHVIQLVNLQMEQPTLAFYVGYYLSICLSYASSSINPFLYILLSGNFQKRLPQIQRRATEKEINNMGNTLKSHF
T11 sequence (Q969V1 whole entry L89A): as the sequence (Q969V1 whole entry V181A) above, with L89A, A181V counted along it
T13 sequence (Q969V1 whole entry W93A): as the sequence (Q969V1 whole entry V181A) above, with W93A, A181V counted along it
T14 sequence (Q969V1 whole entry I292A): as the sequence (Q969V1 whole entry V181A) above, with A181V, I292A counted along it
T3 sequence (Q969V1 whole entry Q271A): as the sequence (Q969V1 whole entry V181A) above, with A181V, Q271A counted along it
T2 sequence (Q969V1 whole entry T198A): as the sequence (Q969V1 whole entry V181A) above, with A181V, T198A counted along it
T9 sequence (Q969V1 whole entry D113A): as the sequence (Q969V1 whole entry V181A) above, with D113A, A181V counted along it
T7 sequence (Q969V1 whole entry Y267A): as the sequence (Q969V1 whole entry V181A) above, with A181V, Y267A counted along it
T1 sequence (Q99705 whole entry L103A): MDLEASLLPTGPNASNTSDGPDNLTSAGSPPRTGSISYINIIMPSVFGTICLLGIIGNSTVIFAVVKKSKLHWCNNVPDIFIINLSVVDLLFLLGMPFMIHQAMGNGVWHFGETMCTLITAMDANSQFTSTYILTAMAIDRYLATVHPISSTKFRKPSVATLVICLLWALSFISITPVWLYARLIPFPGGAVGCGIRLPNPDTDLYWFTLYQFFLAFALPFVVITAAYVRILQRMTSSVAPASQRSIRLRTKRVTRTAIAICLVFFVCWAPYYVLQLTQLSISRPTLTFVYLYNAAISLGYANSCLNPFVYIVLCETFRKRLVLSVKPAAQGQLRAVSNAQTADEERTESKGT
T5 sequence (Q99705 whole entry Y293A): as the sequence (Q99705 whole entry L103A) above, with A103L, Y293A counted along it
T15 sequence (Q969V1 whole entry S183A): as the sequence (Q969V1 whole entry V181A) above, with A181V, S183A counted along it
T16 sequence (Q99705 whole entry Y272A): as the sequence (Q99705 whole entry L103A) above, with A103L, Y272A counted along it
T17 sequence (Q99705 whole entry F187A): as the sequence (Q99705 whole entry L103A) above, with A103L, F187A counted along it
T19 sequence (Q99705 whole entry I185A): as the sequence (Q99705 whole entry L103A) above, with A103L, I185A counted along it
T18 sequence (Q99705 whole entry Y301A): as the sequence (Q99705 whole entry L103A) above, with A103L, Y301A counted along it
T4 sequence (Q969V1 whole entry Y285A): as the sequence (Q969V1 whole entry V181A) above, with A181V, Y285A counted along it
T10 sequence (Q99705 whole entry): as the sequence (Q99705 whole entry L103A) above, with A103L counted along it
T20 sequence (Q99705 whole entry P285A): as the sequence (Q99705 whole entry L103A) above, with A103L, P285A counted along it
T12 sequence (Q99705 whole entry I297A): as the sequence (Q99705 whole entry L103A) above, with A103L, I297A counted along it
T8 sequence (Q969V1 whole entry L188A): as the sequence (Q969V1 whole entry V181A) above, with A181V, L188A counted along it

CSCC[C@@H]1NC(=O)[C@@H](NC(=O)[C@H](CCCNC(=N)N)NC(=O)[C@H](CC(C)C)NC(=O)[C@H](CCSC)NC(=O)[C@H](CC(=O)O)NC(=O)[C@H](Cc2ccccc2)NC(=O)[C@@H](N)CC(=O)O)CSSC[C@@H](C(=O)N[C@@H](Cc2c[nH]c3ccccc23)C(=O)N[C@@H](CCC(N)=O)C(=O)N[C@H](C(=O)O)C(C)C)NC(=O)[C@@H]2CCCN2C(=O)[C@H](CCCNC(=N)N)NC(=O)[C@H](Cc2ccc(O)cc2)NC(=O)[C@H](C(C)C)NC(=O)[C@H](CCCNC(=N)N)NC(=O)CNC(=O)[C@H](CC(C)C)NC1=O [MCH, Melanin-concentrating hormone]
Emax [1]: 107 ± 3%
EC50 [2, 21]: 0.0692 µM
Emax ([2]; AD293, mean ± S.E.M.): 93 ± 2%
EC50 [3, 21]: 0.0275 µM
Emax ([3]; AD293, mean ± S.E.M.): 101 ± 1%
Emax [4]: 92 ± 2%
Emax [5]: 95%
EC50 [6, 21]: 0.0537 µM
Emax ([6]; AD293, mean ± S.E.M.): 96 ± 1%
EC50 [7, 21]: 0.2 µM
Emax ([7]; AD293, mean ± S.E.M.): 92 ± 1%
Emax [8]: 101 ± 1%
EC50 [9, 21]: 2.04 µM
Emax ([9]; AD293, mean ± S.E.M.): 101 ± 2%
Emax [10]: 100%
EC50 ([11]; AD293, IP-One HTRF, 37 °C 1 h, mean ± S.E.M., P 0.1322 vs WT): 0.00912 µM
Emax ([11]; AD293, mean ± S.E.M.): 104 ± 2%
Emax [12]: 90 ± 5%
EC50 [13, 21]: 6.03 µM
Emax ([13]; AD293, mean ± S.E.M.): 91 ± 1%
EC50 [14, 21]: 0.129 µM
Emax ([14]; AD293, mean ± S.E.M.): 92 ± 2%
Emax [15]: 95 ± 1%
Emax [16]: 97 ± 1%
Emax [17]: 106 ± 2%
Emax [18]: -21 ± 4%
Emax [19]: 98 ± 3%
Emax [20]: 109 ± 1%
